Marks after values point to notes of the source that are not given here. One block for each compound: values may come before it. Where no end group is shown, it is not given here. The star is where a group is joined. Myristoyl = CCCCCCCCCCCCCC(=O)*
Columns and labels:
[1] = target: T1, PPAR γ (Mus musculus, UniProt P37238); assay: PPAR γ reporter activity assay in 3T3-L1 preadipocytes; format: cell-based; details: 6 hrs, 2′5′-dideoxyadenosine 10 μM, PKAi 30 μM; for ABA-induced PPAR γ activation, effect of inhibitor: ABA 10 μM; for Ros-induced PPAR γ activation, effect of inhibitor: Ros 1 μM
T1 construct: expressed in transfected cells; host or cells: 3T3-L1 pre-adipocytes
T1 sequence (P37238 31-505 limits assumed): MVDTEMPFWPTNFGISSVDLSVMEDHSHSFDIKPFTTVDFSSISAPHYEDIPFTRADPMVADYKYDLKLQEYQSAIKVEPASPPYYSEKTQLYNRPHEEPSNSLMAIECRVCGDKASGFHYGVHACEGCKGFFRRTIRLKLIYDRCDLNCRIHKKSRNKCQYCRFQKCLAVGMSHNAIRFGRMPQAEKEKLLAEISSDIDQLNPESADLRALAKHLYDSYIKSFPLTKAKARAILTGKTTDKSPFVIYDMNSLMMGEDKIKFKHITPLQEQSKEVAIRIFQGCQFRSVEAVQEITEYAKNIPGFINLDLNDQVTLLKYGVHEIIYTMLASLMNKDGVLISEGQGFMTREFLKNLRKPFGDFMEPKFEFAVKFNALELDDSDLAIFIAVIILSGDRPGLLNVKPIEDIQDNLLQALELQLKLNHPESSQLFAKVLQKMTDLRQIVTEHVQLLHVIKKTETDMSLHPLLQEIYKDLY
Description: For 3T3-L1 preadipocytes cells were treated for 6-h with vehicle (DMSO) or Ros (1 μM) with ABA (10 μM), the cAMP-inhibitor 2′5′ dideoxyadenosine (dideoxy, 10 μM), or 14-22 myristolated PKA inhibitor fragment (PKAi, 30 μM). […] Luciferase activity was normalized to pRL activity in the cell extracts and relative luciferase activity was calculated a ratio of the activity in the treatment wells to control wells. Data are represented as mean±standard error.
A pCMX.PPAR γ expression plasmid and a pTKPPRE3x luciferase reporter plasmid driven by the PPRE-containing Acyl-CoA oxidase promoter (kindly provided by Dr. R M. Evans, The Salk Institute, San Diego, Calif.) were purified using Qiagen's Maxi kit (Valencia, Calif.). […] Cells were co-transfected in the […] with 1.5 μg plasmid DNA and 25 ng of pRL reporter control using F-2 transfection reagents (Targeting Systems, Santee, Calif.) according to the manufacturer's protocol. […] Cells were then treated in replicates of 8 with vehicle (DMSO), rosiglitazone (1 or 10 μM; Cayman Chemicals, Arm Arbor, Mich.), or ABA (10 μM; Sigma) with and without 2′5′ dideoxyadenosine (10 μM; Sigma) and 14-22 myristolated PKA inhibitor fragment (PKAi, 30 μM; Sigma). […] Luciferase activity, normalized to pRL activity in the cell extracts was determined by using the Dual Luciferase II reporter assay system (Promega, Madison, Wis.) using a Modulus 96-well luminometer (Turner Biosystems, Sunnyvale, Calif.). All values were normalized to control wells to calculate relative luciferase activity.

[2] = as stated in U.S. Pat. No. 6,515,132; cited from earlier work
[3] = Dietary ABA and rosiglitazone in obese db/db mice: body and organ weights; format: in vivo; details: for Final body weight / Ab. WAT % Body Weight / Liver % Body Weight / Sc. WAT % Body Weight: with or without ABA 100 mg/kg diet; for Final body weight: 60 days
Description: Twelve-fifteen week-old BKS.Cg-+Lepr^db/+Lepr^db/OlaHsd (db/db) mice were housed at the animal facilities at Virginia Polytechnic Institute and State University in a room maintained at 75° F., with a 12:12 h light-dark cycle starting from 6:00 AM. All experimental procedures were approved by the Institutional Animal Care and Use Committee of Virginia Polytechnic Institute and State University and met or exceeded requirements of the Public Health Service, National Institutes of Health and the Animal Welfare Act. […] Louis, Mo.) for 60 days. Mice were weighed and fasting (12 h) blood glucose levels were taken weekly. Blood glucose levels were assessed with an ACCU-CHEK® Glucometer (Roche, Indianapolis, Ind.). […] On day 60 mice were sacrificed by CO2 narcosis with secondary thoracotomy. Abdominal WAT, inguinal subcutaneous WAT, and liver were then excised and weighed. Abdominal and subcutaneous WAT were then digested and fractionated.

[4] = db/db mice, Roshi diet (70 mg/kg diet), day 60
[5] = db/db mice, Roslo diet (10 mg/kg diet), day 60

Compound: C[C@H]1O[C@@H](n2cnc3c(N)ncnc32)C[C@@H]1O [2′5′-dideoxyadenosine]
ABA-induced PPAR γ activation, effect of inhibitor [1]: prevented
Ros-induced PPAR γ activation, effect of inhibitor [1]: no effect

Compound: O=C1NC(=O)C(Cc2ccc3c(c2)CC[C@H](Cc2ccccc2)O3)S1 (stereo partly shown) [Englitazone]
current minimum effective drug dose [2]: 200 μmol/kg diet

edema in the interscapular region ([3]; db/db mice fed Ros^hi (70 mg/kg diet)): significant edema
liver weights (in words) ([3]; db/db mice, day 60, low dose Ros, ABA 100 mg/kg diet): significantly increased
Compound: CN(CCOc1ccc(CC2SC(=O)NC2=O)cc1)c1ccccn1 (stereo not shown) [rosiglitazone]
Final body weight ([3]; db/db mice, Roshi diet (70 mg/kg diet)): 64.4 ± 2.4^d g
Ab. WAT % Body Weight [3, 4]: 4.6 ± 0.61^a % Body Weight
Liver % Body Weight [3, 4]: 6.7 ± 2.3^a % Body Weight
Sc. WAT % Body Weight [3, 4]: 3.2 ± 0.43 % Body Weight
Final body weight ([3]; db/db mice, Roslo diet (10 mg/kg diet)): 56.4 ± 2.4^bc g
Ab. WAT % Body Weight [3, 5]: 6.7 ± 0.61^bc % Body Weight
Liver % Body Weight [3, 5]: 9.2 ± 0.51^b % Body Weight
Sc. WAT % Body Weight [3, 5]: 2.4 ± 0.43 % Body Weight
body weights of the mice (in words) ([3]; db/db mice, both low- and high-dose rosiglitazone, 60-day dietary intervention): significantly increased

ABA-induced PPAR γ activation, effect of inhibitor [1]: prevented
Ros-induced PPAR γ activation, effect of inhibitor [1]: no effect
Compound: PKAi: 14-22 myristoylated PKA inhibitor fragment (Myristoyl-SGRTGRRNA; UniProt P61925 14-22, looked up, fragment)
